Measured values: ChEMBL document CHEMBL4392883, “Konamycins A and B and Rubromycins CA1 and CA2, Aromatic Polyketides from the Tunicate-Derived Streptomyces hyaluromycini MB-PO13T” (2019)
In brackets after ≈: the same amount, converted by molar mass.

Columns and labels:
Assay type in all cases: functional
[1] = Antioxidant activity assessed as DPPH radical scavenging activity
[2] = Antioxidant activity assessed as superoxide dismutase-like activity measured after 20 mins by WST-based assay
[3] = tested on: Kocuria rhizophila; assay: Antimicrobial activity against Kocuria rhizophila ATCC 9341 measured after 20 hrs; settings: DC2201 
[4] = tested on: Bacillus cereus; assay: Antimicrobial activity against Bacillus cereus NBRC 15305 measured after 20 hrs; settings: NBRC 15305, 20 h
[5] = tested on: Escherichia coli; assay: Antimicrobial activity against Escherichia coli NIH-JC2 measured after 20 hrs; settings: NIH-JC2, 20 h
[6] = tested on: Candida albicans; assay: Antimicrobial activity against Candida albicans NBRC 1594 measured after 20 hrs; settings: NBRC 1594, 20 h
[7] = tested on: Staphylococcus aureus; assay: Antimicrobial activity against Staphylococcus aureus IFO 12732 measured after 20 hrs; settings: IFO 12732, 20 h
[8] = tested on: Kluyveromyces marxianus; assay: Antimicrobial activity against Kluyveromyces fragilis ATCC 8635 measured after 20 hrs; settings: ATCC 8635, 20 h
[9] = tested on: Enterococcus faecalis; assay: Antimicrobial activity against Enterococcus faecalis NBRC 100480 measured after 20 hrs
[10] = tested on: Mycolicibacterium smegmatis; assay: Antimicrobial activity against Mycobacterium smegmatis NBRC 3207 measured after 20 hrs; settings: NBRC 3207, 20 h

| Structure (SMILES) | SC50 [1] [µM] | SC50 [2] [µM] | MIC [3] [µg/mL] | MIC [4] [µg/mL] | MIC [5] [µg/mL] | MIC [6] [µg/mL] | MIC [7] [µg/mL] | MIC [8] [µg/mL] | MIC [9] [µg/mL] | MIC [10] [µg/mL] |
| --- | --- | --- | --- | --- | --- | --- | --- | --- | --- | --- |
| CC(=O)O[C@H]1C2=C(C=C3C(=O)c4c(ccc([C@H]5CC[C@H](O)[C@@H](C)O5)c4O)C(O)=C32)C(=O)[C@@](C)(O)[C@@H]1OC(=O)CCC(=O)O | 21 | 66 | – | – | – | – | – | – | – | – |
| Cc1c(C)c2c(c(C)c1O)CCC(C)(C(=O)O)O2 (stereo not given) | 9 | – | – | – | – | – | – | – | – | – |
| COC1=CC(=O)c2c(O)c3c(c(O)c2C1=O)O[C@@]1(CCc2cc4cc(C(=O)O)oc(=O)c4c(O)c2O1)[C@H]3O | – | – | 50 (≈ 95.3 µM) | 50 (≈ 95.3 µM) | > 100 | > 100 | 0.4 (≈ 0.763 µM) | > 100 | > 100 | 12.5 (≈ 23.8 µM) |
| O=C(O)c1cc(O)c(O)c(O)c1 | – | 102 | – | – | – | – | – | – | – | – |
| COC1=CC(=O)c2c(O)c3c(c(O)c2C1=O)O[C@@]1(CCc2cc4cc(C(=O)O)oc(=O)c4c(O)c2O1)C3 | – | – | 12.5 (≈ 24.6 µM) | 12.5 (≈ 24.6 µM) | > 100 | 6.3 (≈ 12.4 µM) | 0.2 (≈ 0.393 µM) | 12.5 (≈ 24.6 µM) | 100 (≈ 197 µM) | 3.1 (≈ 6.1 µM) |
